From patent publication US20250340579A1 (priority 2022, published 2025)

Experiments:
[1] = in vivo; cited from earlier work
[2] = pH 7.4

Molecule | effectiveness post-cyanide exposure versus pre-exposure [1] | solution stability [2]
C/C1=C2/[N-][C@H]([C@H](CC(N)=O)[C@@]2(C)CCC(=O)NC[C@@H](C)O)[C@]2(C)N=C(/C(C)=C3N=C(/C=C4N=C1[C@@H](CCC(N)=O)C\4(C)C)[C@@H](CCC(N)=O)[C@]\3(C)CC(N)=O)[C@@H](CCC(N)=O)[C@]2(C)CC(N)=O.[Co+3] [Cobinamide] | as effective when administered up to 5 minutes post-cyanide exposure as when given pre-exposure | 
bis-aminotetrazole-cobinamide |  | stable at room temperature when protected from bright light
